# In patent publication US20240285670A1, “THERAPEUTIC TREATMENT OF TUMORS BY BLOCKING THE HEME SYNTHESIS-EXPORT AXIS” (Università degli Studi di Torino, priority 2021, published 2024):
# How the values were obtained:
# [1] = system: BTECs; test: Mitochondrial ATP levels in BTECs; assay type: cell-based, human; settings: FLVCR1a-silenced vs scramble shRNA BTECs
# Description: (§1) Results were expressed as nmol NAD*/min/mg mitochondrial protein for complex I, nmol reduced cytochrome c/min/mg mitochondrial protein for complexes II-III, nmol oxidized cytochrome c/min/mg mitochondrial protein for complex IV. Data represent mean±SEM, n=3. For statistical analyses, an unpaired Student's t-test was used; *=p<0.05, **=p<0.01, *=p<0.001. […] Results are expressed as nmol/mg mitochondrial proteins. Data represent mean±SEM, n=3. For statistical analyses, an unpaired Student's t-test was used; *=p<0.05. […] Results are expressed as pmol CO2/h/mg protein. Data represent mean±SEM, n=3. For statistical analyses, an unpaired Student's t-test was used; **=p<0.01. […] Results were expressed as nmol NAD*/min/mg mitochondrial protein for complex I, nmol reduced cytochrome c/min/mg mitochondrial protein for complexes II-III, nmol oxidized cytochrome c/min/mg mitochondrial protein for complex IV. […] Results are expressed as nmol/mg mitochondrial proteins. […] Results are expressed as pmol CO2/h/mg protein. […] (H) TCA cycle enzymes activities are reported in boxes and expressed as mU/mg mitochondrial proteins. […] Results were expressed as nmol NAD^+/min/mg mitochondrial protein for complex I, nmol reduced cytochrome c/min/mg mitochondrial protein for complexes II-III, nmol oxidized cytochrome c/min/mg mitochondrial protein for complex IV. […] Results are expressed as nmol/mg mitochondrial proteins. […]
# [2] = system: BTECs; test: TCA cycle flux in BTECs; assay type: cell-based, human; settings: FLVCR1a-silenced vs scramble shRNA BTECs
# Description: as §1
substance,measurement,setting,value
"FLVCR1a shRNA: shRNA specifically down-regulating FLVCR1a without targeting FLVCR1b; pLKO.1 lentiviral clone TRCN0000059599, antisense SEQ ID No.: 2 (antisense TTGCTAATGATGCTGTACTGG; sense CCAGTACAGCATCATTAGCAA)",mitochondrial ATP levels,[1],increased mitochondrial ATP levels
same,TCA cycle flux,[2],increased TCA cycle flux
